# According to PubChem BioAssay AID194 (DTP/NCI, 2004):
# Values joined by “and” are separate entries in the source; they are usually repeats but may differ in a detail not shown here. Equal values may be shown once. Inconclusive results are not listed.
# System: BDF1 mice, B16 melanoma s.c., survival/tumor T/C
# Assay: NCI In Vivo Anticancer Drug Screen. Data for tumor model B16 Melanoma (subcutaneous) in B6D2F1 (BDF1) mice
# Protocol: The antitumor activity of compounds was measured in mice bearing transplantable tumors. Survival or tumor size were measured and the results are expressed as the measurement made in the treated group (T) divided by the measurement made in the vehicle treated control group (C). The tumor model used in this assay is B16 Melanoma (subcutaneous) in B6D2F1 (BDF1) mice
# [1] = endpoint: median survival time, dose: 1.56 mg/kg/injection, schedule: Q01DX009 (ip), vehicle: Klucel (hydroxypropylcellulose) (HPC), higher = longer survival
# [2] = endpoint: median survival time, dose: 6.25 mg/kg/injection, schedule: Q01DX009 (ip), vehicle: Klucel (hydroxypropylcellulose) (HPC), higher = longer survival
# [3] = endpoint: median survival time, dose: 50.0 mg/kg/injection, schedule: Q01DX009 (ip), vehicle: saline with Tween-80, higher = longer survival
# [4] = endpoint: median survival time, dose: 12.5 mg/kg/injection, schedule: Q01DX009 (ip), vehicle: Klucel (hydroxypropylcellulose) (HPC), higher = longer survival
# [5] = endpoint: median survival time, dose: 5.18 mg/kg/injection, schedule: Q01DX007 (ip), vehicle: water, higher = longer survival
# [6] = endpoint: median survival time, dose: 8.64 mg/kg/injection, schedule: Q01DX007 (ip), vehicle: water, higher = longer survival
smiles,measurement,setting,value
N[C@@H](Cc1ccc(N(CCCl)CCCl)cc1)C(=O)O,T/C,"endpoint: median survival time, dose: 1.0 mg/kg/injection, schedule: Q01DX009 (ip), vehicle: saline, higher = longer survival",93 % of control
same,T/C,"endpoint: median survival time, dose: 2.0 mg/kg/injection, schedule: Q01DX009 (ip), vehicle: saline, higher = longer survival",150 % of control
same,T/C,"endpoint: median survival time, dose: 4.0 mg/kg/injection, schedule: Q01DX009 (ip), vehicle: saline, higher = longer survival",123 % of control
same,T/C,"endpoint: median tumor weight (est.), dose: 1.25 mg/kg/injection, schedule: Q01DX009 (ip), vehicle: Klucel (hydroxypropylcellulose) (HPC), higher = larger tumour",63 % of control
same,T/C,"endpoint: median tumor weight (est.), dose: 2.5 mg/kg/injection, schedule: Q01DX009 (ip), vehicle: Klucel (hydroxypropylcellulose) (HPC), higher = larger tumour",44 % of control
same,T/C,"endpoint: median tumor weight (est.), dose: 5.0 mg/kg/injection, schedule: Q01DX009 (ip), vehicle: Klucel (hydroxypropylcellulose) (HPC), higher = larger tumour",18 % of control
Cc1ncc([N+](=O)[O-])n1CCO,T/C,"endpoint: median survival time, dose: 37.5 mg/kg/injection, schedule: Q01DX009 (ip), vehicle: Klucel (hydroxypropylcellulose) (HPC), higher = longer survival",100 % of control
same,T/C,"endpoint: median survival time, dose: 37.5 mg/kg/injection, schedule: Q04DX003 (ip), vehicle: Klucel (hydroxypropylcellulose) (HPC), higher = longer survival",100 % of control
same,T/C,"endpoint: median survival time, dose: 75.0 mg/kg/injection, schedule: Q01DX009 (ip), vehicle: Klucel (hydroxypropylcellulose) (HPC), higher = longer survival",100 % of control
same,T/C,"endpoint: median survival time, dose: 75.0 mg/kg/injection, schedule: Q04DX003 (ip), vehicle: Klucel (hydroxypropylcellulose) (HPC), higher = longer survival",111 % of control
same,T/C,"endpoint: median survival time, dose: 150.0 mg/kg/injection, schedule: Q01DX009 (ip), vehicle: Klucel (hydroxypropylcellulose) (HPC), higher = longer survival",108 % of control
same,T/C,"endpoint: median survival time, dose: 150.0 mg/kg/injection, schedule: Q04DX003 (ip), vehicle: Klucel (hydroxypropylcellulose) (HPC), higher = longer survival",111 % of control
same,T/C,"endpoint: median survival time, dose: 300.0 mg/kg/injection, schedule: Q01DX009 (ip), vehicle: Klucel (hydroxypropylcellulose) (HPC), higher = longer survival",93 % of control
same,T/C,"endpoint: median survival time, dose: 300.0 mg/kg/injection, schedule: Q04DX003 (ip), vehicle: Klucel (hydroxypropylcellulose) (HPC), higher = longer survival",112 % of control
same,T/C,"endpoint: median survival time, dose: 600.0 mg/kg/injection, schedule: Q04DX003 (ip), vehicle: Klucel (hydroxypropylcellulose) (HPC), higher = longer survival",121 % of control
C[C@@H]1CC[C@@]2(NC1)O[C@H]1C[C@H]3[C@@H]4CC=C5C[C@@H](O)CC[C@]5(C)[C@H]4CC[C@]3(C)[C@H]1[C@@H]2C,T/C,"endpoint: median survival time, dose: 0.78 mg/kg/injection, schedule: Q01DX009 (ip), vehicle: Klucel (hydroxypropylcellulose) (HPC), higher = longer survival",121 % of control
same,T/C,[1],121 % of control
same,T/C,[2],120 % of control
CC(C)[C@](O)(C(=O)OCC1=CC[N+]2([O-])CC[C@@H](O)[C@@H]12)[C@H](C)O (some centres not stated),T/C,"endpoint: median survival time, dose: 50.0 mg/kg/injection, schedule: Q01DX009 (ip), vehicle: water, higher = longer survival",95 % of control
same,T/C,"endpoint: median survival time, dose: 100.0 mg/kg/injection, schedule: Q01DX009 (ip), vehicle: water, higher = longer survival",106 % of control
same,T/C,"endpoint: median survival time, dose: 200.0 mg/kg/injection, schedule: Q01DX009 (ip), vehicle: water, higher = longer survival",103 % of control
C[C@@H](CN1CC(=O)NC(=O)C1)N1CC(=O)NC(=O)C1,T/C,"endpoint: median survival time, dose: 6.25 mg/kg/injection, schedule: Q04DX003 (ip), vehicle: saline, higher = longer survival",91 % of control
same,T/C,"endpoint: median survival time, dose: 12.5 mg/kg/injection, schedule: Q04DX003 (ip), vehicle: saline, higher = longer survival",97 % of control
same,T/C,"endpoint: median survival time, dose: 16.0 mg/kg/injection, schedule: Q01DX009 (ip), vehicle: Klucel (hydroxypropylcellulose) (HPC), higher = longer survival",100 % of control
same,T/C,"endpoint: median survival time, dose: 16.0 mg/kg/injection, schedule: Q01DX009 (ip), vehicle: water, higher = longer survival",117 % of control
same,T/C,"endpoint: median survival time, dose: 25.0 mg/kg/injection, schedule: Q04DX003 (ip), vehicle: saline, higher = longer survival",107 % of control
same,T/C,"endpoint: median survival time, dose: 32.0 mg/kg/injection, schedule: Q01DX009 (ip), vehicle: Klucel (hydroxypropylcellulose) (HPC), higher = longer survival",110 % of control
same,T/C,"endpoint: median survival time, dose: 64.0 mg/kg/injection, schedule: Q01DX009 (ip), vehicle: Klucel (hydroxypropylcellulose) (HPC), higher = longer survival",168 % of control
same,T/C,"endpoint: median survival time, dose: 100.0 mg/kg/injection, schedule: Q04DX003 (ip), vehicle: saline, higher = longer survival",119 % of control
same,T/C,"endpoint: median survival time, dose: 200.0 mg/kg/injection, schedule: Q04DX003 (ip), vehicle: saline, higher = longer survival",115 % of control
same,T/C,"endpoint: median survival time, dose: 400.0 mg/kg/injection, schedule: Q04DX003 (ip), vehicle: saline, higher = longer survival",108 % of control
same,T/C,"endpoint: median survival time, dose: 800.0 mg/kg/injection, schedule: Q04DX003 (ip), vehicle: saline, higher = longer survival",119 % of control
Nc1nc(=S)c2ncn(C3CC(O)C(CO)O3)c2[nH]1 (configuration not stated),T/C,"endpoint: median survival time, dose: 4.0 mg/kg/injection, schedule: Q01DX009 (ip), vehicle: saline with Tween-80, higher = longer survival",109 % of control
same,T/C,"endpoint: median survival time, dose: 8.0 mg/kg/injection, schedule: Q01DX009 (ip), vehicle: saline with Tween-80, higher = longer survival",91 % of control
same,T/C,"endpoint: median survival time, dose: 16.0 mg/kg/injection, schedule: Q01DX009 (ip), vehicle: saline with Tween-80, higher = longer survival",95 % of control
same,T/C,"endpoint: median survival time, dose: 32.0 mg/kg/injection, schedule: Q01DX009 (ip), vehicle: saline with Tween-80, higher = longer survival",91 % of control
same,T/C,"endpoint: median survival time, dose: 64.0 mg/kg/injection, schedule: Q01DX009 (ip), vehicle: saline with Tween-80, higher = longer survival",123 % of control
O=P(OCC(Br)CBr)(OCC(Br)CBr)OCC(Br)CBr (configuration not stated),T/C,[3],110 % of control
same,T/C,"endpoint: median survival time, dose: 100.0 mg/kg/injection, schedule: Q01DX009 (ip), vehicle: saline with Tween-80, higher = longer survival",114 % of control
same,T/C,"endpoint: median survival time, dose: 200.0 mg/kg/injection, schedule: Q01DX009 (ip), vehicle: saline with Tween-80, higher = longer survival",98 % of control
same,T/C,"endpoint: median survival time, dose: 400.0 mg/kg/injection, schedule: Q01DX009 (ip), vehicle: saline with Tween-80, higher = longer survival",105 % of control
O=[N+]([O-])c1ccc(/C=N/c2ncc(Br)s2)o1,T/C,[1],123 % of control
same,T/C,"endpoint: median survival time, dose: 3.12 mg/kg/injection, schedule: Q01DX009 (ip), vehicle: Klucel (hydroxypropylcellulose) (HPC), higher = longer survival",92 % of control
same,T/C,"endpoint: median survival time, dose: 3.13 mg/kg/injection, schedule: Q01DX009 (ip), vehicle: Klucel (hydroxypropylcellulose) (HPC), higher = longer survival",121 % of control
same,T/C,[2],110 % of control and 111 % of control
same,T/C,[4],114 % of control
O=NN(CCF)C(=O)N[C@H]1CCCC[C@H]1O,T/C,[5],68 % of control
same,T/C,[6],105 % of control
same,T/C,"endpoint: median survival time, dose: 14.4 mg/kg/injection, schedule: Q01DX007 (ip), vehicle: water, higher = longer survival",121 % of control
NC(=O)c1[nH]nc(C2OC(CO)C(O)C2O)c1O (configuration not stated),T/C,"endpoint: median survival time, dose: 0.12 mg/kg/injection, schedule: Q01DX009 (ip), vehicle: saline, higher = longer survival",108 % of control
same,T/C,"endpoint: median survival time, dose: 0.25 mg/kg/injection, schedule: Q01DX009 (ip), vehicle: saline, higher = longer survival",109 % of control
same,T/C,"endpoint: median survival time, dose: 0.5 mg/kg/injection, schedule: Q01DX009 (ip), vehicle: saline, higher = longer survival",106 % of control
same,T/C,"endpoint: median survival time, dose: 0.67 mg/kg/injection, schedule: Q01DX009 (ip), vehicle: saline, higher = longer survival",102 % of control
same,T/C,"endpoint: median survival time, dose: 1.25 mg/kg/injection, schedule: Q01DX009 (ip), vehicle: saline, higher = longer survival",87 % of control
O=P(O)(NCCCl)NCCCl,T/C,"endpoint: median survival time, dose: 50.0 mg/kg/injection, schedule: Q01DX001 (ip), vehicle: saline, higher = longer survival",98 % of control
same,T/C,"endpoint: median survival time, dose: 150.0 mg/kg/injection, schedule: Q01DX001 (ip), vehicle: saline, higher = longer survival",162 % of control
CS(=O)(=O)OCCCCOS(C)(=O)=O,T/C,[4],88 % of control and 100 % of control
same,T/C,"endpoint: median survival time, dose: 25.0 mg/kg/injection, schedule: Q01DX009 (ip), vehicle: saline with Tween-80, higher = longer survival",100 % of control
same,T/C,[3],100 % of control
same,T/C,"endpoint: median tumor weight (est.), dose: 12.5 mg/kg/injection, schedule: Q01DX009 (ip), vehicle: saline with Tween-80, higher = larger tumour",162 % of control
same,T/C,"endpoint: median tumor weight (est.), dose: 25.0 mg/kg/injection, schedule: Q01DX009 (ip), vehicle: Klucel (hydroxypropylcellulose) (HPC), higher = larger tumour",97 % of control and 83 % of control
same,T/C,"endpoint: median tumor weight (est.), dose: 25.0 mg/kg/injection, schedule: Q01DX009 (ip), vehicle: saline with Tween-80, higher = larger tumour",88 % of control
same,T/C,"endpoint: median tumor weight (est.), dose: 50.0 mg/kg/injection, schedule: Q01DX009 (ip), vehicle: Klucel (hydroxypropylcellulose) (HPC), higher = larger tumour",61 % of control
same,T/C,"endpoint: median tumor weight (est.), dose: 50.0 mg/kg/injection, schedule: Q01DX009 (ip), vehicle: saline with Tween-80, higher = larger tumour",69 % of control
O=NN(CCF)C(=O)NCCO,T/C,"endpoint: median survival time, dose: 3.11 mg/kg/injection, schedule: Q01DX007 (ip), vehicle: water, higher = longer survival",98 % of control
same,T/C,[5],112 % of control
same,T/C,[6],123 % of control
CC1(C)N=C(N)N=C(N)N1c1ccc(CCCCc2ccc(S(=O)(=O)F)cc2Cl)c(Cl)c1,T/C,"endpoint: median survival time, dose: 6.25 mg/kg/injection, schedule: Q01DX009 (ip), vehicle: saline, higher = longer survival",119 % of control
same,T/C,"endpoint: median survival time, dose: 12.5 mg/kg/injection, schedule: Q01DX009 (ip), vehicle: saline, higher = longer survival",90 % of control
same,T/C,"endpoint: median survival time, dose: 18.75 mg/kg/injection, schedule: Q04DX003 (ip), vehicle: saline, higher = longer survival",88 % of control
same,T/C,"endpoint: median survival time, dose: 25.0 mg/kg/injection, schedule: Q01DX009 (ip), vehicle: saline, higher = longer survival",111 % of control
same,T/C,"endpoint: median survival time, dose: 37.5 mg/kg/injection, schedule: Q04DX003 (ip), vehicle: saline, higher = longer survival",105 % of control
same,T/C,"endpoint: median survival time, dose: 75.0 mg/kg/injection, schedule: Q04DX003 (ip), vehicle: saline, higher = longer survival",110 % of control
same,T/C,"endpoint: median survival time, dose: 150.0 mg/kg/injection, schedule: Q04DX003 (ip), vehicle: saline, higher = longer survival",119 % of control
CS(=O)(=O)OCCCNCCCOS(C)(=O)=O,T/C,"endpoint: median survival time, dose: 5.0 mg/kg/injection, schedule: Q01DX009 (ip), vehicle: saline, higher = longer survival",106 % of control
same,T/C,"endpoint: median survival time, dose: 10.0 mg/kg/injection, schedule: Q01DX009 (ip), vehicle: saline, higher = longer survival",110 % of control
same,T/C,"endpoint: median survival time, dose: 20.0 mg/kg/injection, schedule: Q01DX009 (ip), vehicle: saline, higher = longer survival",92 % of control
